“Also recorded” adds a separate entry of the source.
Key:
[1] = system: acute promyelocytic leukemia; settings: PML-RAR patient with multiple relapses after retinoic acid; Warrell et al., 1998; cited from earlier work
[2] = system: stage III/IV non-small cell lung cancer; settings: monotherapy; Keer et al., 2002; cited from earlier work
IL-2 = IL-2 ELISA of PBL supernatants; format: cell-based, human; settings: for IL-2 secretion, dose-response / concentration of maximal inhibition of IL-2 expression: PBLs; for IL-2 secretion, dose-response: 2 h preincubation, CD3 and CD28 mAbs 24 h; for IL-2 secretion, dose-response / concentration of maximal inhibition of IL-2 expression / secretion of IL-2: FIG. 6; for concentration of maximal inhibition of IL-2 expression / secretion of IL-2: CD3/CD28
Method: (§1) Monocyte and macrophage depleted peripheral blood mononuclear cells were obtained from consenting adults via separation using Ficoll-Hypaque. The peripheral blood mononuclear cells (PBMC) fraction was washed and seeded in 9 cm petri dishes. After an incubation of 2 hours at 37° C. to remove most of the monocytes, macrophages, and B-cells, the non-adherent cells were collected and cultured in 175cm^2 flasks for 2 days. Cells were harvested and adjusted to 3 million cells per ml. Aliquots of 500μl were transferred to each well of 24-well flat bottom plates. Peripheral blood lymphocytes (PBL's) were treated with various concentrations of HDAC inhibitors as indicated. After a 2 hour incubation time at 37°C cells were stimulated with phorbol 12-myristate 13-acetate (PMA) / ionomycin (Ion) or activated via T cell receptor (TCR/CD3) complex with 10μg/m1 anti-CD3 mAb (OKT3) and 2.5μg/ml anti-CD28 mAb. After 24 hours at 37° C. the supernatant was removed and frozen for cytokine assays. Cell pellets were lysed and total RNA was isolated using the RNeasy mini kit from Qiagen.
(§2) To perform ELISA's, supernatants of treated and untreated PBL's were collected and IL-2 as well as TNF-α were measured using the Duo Set ELISA Development System (R&D Systems) as described by the manufacturer.

TNF-α = TNF-α ELISA of PBL supernatants; format: cell-based, human; settings: for TNF-α secretion, dose-response / concentration of maximal inhibition of TNF-α expression: PBLs, FIG. 6; for TNF-α secretion, dose-response: 2 h preincubation, CD3 and CD28 mAbs 24 h; for concentration of maximal inhibition of TNF-α expression: CD3/CD28
Method: as §1, §2

[3] = system: Peripheral blood lymphocytes (PBL's); test: Cytokine mRNA by semiquantitative RT-PCR in PMA/Ion-stimulated PBLs; format: cell-based, human; settings: for modulation of cytokine expression: PMA/Ion, FIGS. 4A and B; for IL-6 mRNA / PMA/Ion mediated stimulation of IL-4 mRNA: 2 h preincubation, PMA/Ion 24 h
Method: as §1
(§3) One microgram of total RNA was transcribed to cDNA by standard methods using reverse transcriptase and an oligo-dT primer (Invitrogen). For semiquantitative PCR, 2 μl of cDNA was amplified by PCR using specific primers. Primers for PCR were synthesized by MWG and are as follows: […]

PPARδ = settings: cited from earlier work
[4] = system: Human immortalized keratinocytes (HaCaT cells); test: Cytokine mRNA by semiquantitative RT-PCR in LPS-stimulated keratinocytes; format: cell-based; settings: 4 h preincubation (200 nM TSA or 5 mM 2PPA), LPS 24 h; for level of IL-6 mRNA / level of TNF-α mRNA: vs. untreated stimulated control
Method: Human immortalized keratinocytes (HaCaT cells) were seeded at a density of 2.5 million cells per ml into 75 cm^2 flasks. […] After 24 hours at 37° C. cells were lysed and total RNA was isolated using the RNeasy mini kit from Qiagen.
as §3

C57BL/6J-APC^min mice = test: APC^min mouse model, adenoma count after four weeks of treatment; format: in vivo
Method: Ten to sixteen weeks old age- and sex-matched heterozygous C57BL/6J-APC^min mice (Jackson Laboratories, Bar Harbor, Me.) were either left untreated or were treated with 2-PPA or Celecoxib. Control animal were injected (i.p.) with PBS. 2-PPA was injected as isotonic aequous solution of the sodium salt (2×400 mg/kg/day) for four weeks, while Celecoxib was fed to the animals ad libidum at 1250 ppm (0, 12%) for four weeks. At necropsy entire intestinal tracts were opened longitudinally and fixed in 10% phosphate buffered formaldehyde for 24 h. Polyp contrast was increased performing a 1 min staining in 0.1% methylene blue prior to determination of polyp numbers and sizes under a dissecting microscope by two independent observers unaware of the treatment that the mice had received.

[5] = EP application No. 03014278.0; cited from earlier work
[6] = system: cell lines with proven mutations of crucial genes; test: Cell viability assay (MTT test); format: cell-based; settings: 0.5 to 3 mM, 40 h to 70 h, all the cell lines tested, vs. untreated cells
Method: In FIG. 1 cell lines are listed with proven mutations of crucial genes which in an inherited way establish a condition that predisposes a person to develop a disorder. The cells were grown in the respective medium as described in FIG. 1.
The cell lines listed in table 1 were seeded in 96 well plates at a density of 1×10^4 cells/well in normal growth medium. 2-propyl pentanoic acid was added at final concentrations between 0.5 and 3 mM to triplicate samples and the cells were incubated for 40 h to 70 h. Control cells were grown in the absence of 2-propyl pentanoic acid. Ten μl of 10 mg/ml 3-(4,5-dimethylthiazole-2-yl)-2,5 diphenyltetrazolium bromide (MTT) (Sigma, Deisenhofen, Germany) in PBS were added to each well and the cells were incubated for another 3 h. Cells were lysed by the addition of 90 μl of lysis buffer (20% SDS in 50% dimethyl formamide, pH 4.7). After solubilization of the formazan product, the absorption at 590 nm was determined in a microplate reader (Dynatech, Denkendorf, Germany) and the relative amount of viable cells in comparison to cells grown without the addition of 2-propyl pentanoic acid was determined.

[7] = system: Acetylated histones H3 and H4 and the marker gene HDAC-2; test: Western blot of peripheral blood cells from patients treated with 2PPA (phase I/II); format: in vivo, human; settings: 2PPA intravenously, before, 6 h, 24 h, 48 h
Method: Whole cell extracts were prepared by lysis of cells in RIPA buffer including protease inhibitors. Lysates were separated by SDS gel electrophoresis and transferred onto PVDF membranes. Acetylated histones H3 and H4 and the marker gene HDAC-2 were detected by western blot analysis using an anti-acetylated H3 antibody (Upstate, #06-942), an anti-acetylated H4 antibody (clon T25; patent application EP 02.021984.6), and an anti-HDAC-2 antibody (SCBT, SC-7899). As an equal loading control PVDF membranes were stained with Coomassie (FIG. 9).

Peripheral blood cells = test: Cytokine ELISA and RT-PCR in peripheral blood cells from a patient treated with 2PPA; format: in vivo, human
Method: The cells were either left unstimulated or stimulated with CD3 and CD28 antibodies. After 24 hours at 37° C. the supernatant was collected and the secretion of IL-2 and TNF-α was quantified by ELISA (R&D Systems) (FIGS. 10A and B).
Total RNA from unstimulated and CD3/CD28 stimulated cells was isolated using the RNeasy mini kit (Qiagen). One microgram of total RNA was converted to cDNA by standard methods using reverse transcriptase and an oligo-dT primer (Invitrogen). For semiquantitative PCR, 2 μl of cDNA were amplified by PCR using the specific primers as described above (FIG. 10C).

[8] = 1 mM, other experiments, PMA/ION and CD3/CD28, FIG. 7
[9] = starting at 24 hours of 2PPA treatment

phenylbutyrate
clinical outcome [1]: complete remission of the leukemia

CCCC(=O)OCOC(=O)C(C)(C)C [Pivanex, Pivaloyloxymethyl butyrate]
clinical activity [2]: activity in stage III/IV non-small cell lung cancer

O=C(CCC1CCCCC1)NO [G2M-702]
IL-2 secretion, dose-response (IL-2): dose-dependent inhibition | concentration of maximal inhibition of IL-2 expression (IL-2): 3 µM | TNF-α secretion, dose-response (TNF-α): dose-dependent inhibition | concentration of maximal inhibition of TNF-α expression (TNF-α): 3 µM | modulation of cytokine expression [3]: can modulate cytokine expression

CC(/C=C/C(=O)NO)=C\[C@@H](C)C(=O)c1ccc(N(C)C)cc1 [TSA, Trichostatin A]
activation of PPARδ (PPARδ): activates PPARδ | mRNA transcript of IFN-γ [4]: virtually unaffected | level of IL-6 mRNA [4]: significant decrease | level of TNF-α mRNA [4]: significant decrease | IL-6 mRNA [3]: only moderate effects | PMA/Ion mediated stimulation of IL-4 mRNA [3]: significantly reduced

Cc1ccc(-c2cc(C(F)(F)F)nn2-c2ccc(S(N)(=O)=O)cc2)cc1 [Celecoxib]
abnormalities in the gastrointestinal tract (C57BL/6J-APC^min mice; APC^min mice after four weeks of treatment, FIG. 2B): intensely inflated stomach, small intestine, and colon

O=C(CCCCCCC(=O)Nc1ccccc1)NO [SAHA, suberoylanilide hydroxamic acid]
modulation of cytokine expression [3]: can modulate cytokine expression

O=C(/C=C/C1CCCCC1)NO [G2M-707]
IL-2 secretion, dose-response (IL-2): dose-dependent inhibition | concentration of maximal inhibition of IL-2 expression (IL-2): 1 µM | TNF-α secretion, dose-response (TNF-α): dose-dependent inhibition | concentration of maximal inhibition of TNF-α expression (TNF-α): 1 µM | modulation of cytokine expression [3]: can modulate cytokine expression

O=C(CCC1CCCC1)NO [G2M-701]
IL-2 secretion, dose-response (IL-2): dose-dependent inhibition | concentration of maximal inhibition of IL-2 expression (IL-2): 6 µM | TNF-α secretion, dose-response (TNF-α): dose-dependent inhibition | concentration of maximal inhibition of TNF-α expression (TNF-α): 6 µM | modulation of cytokine expression [3]: can modulate cytokine expression

CCCC(CCC)C(=O)O [2PPA, 2-propyl-pentanoic acid]
secretion of IL-2 (IL-2; 0.5 mM): only moderate effect | secretion of IL-2 (IL-2; 1 mM): only moderate effect | IL-2 secretion (IL-2; [8]): significant decrease | secretion of IL-2 (IL-2; 5 mM): significantly reduced | IL-2 secretion, dose-response (IL-2): dose-dependent inhibition | skin permeation [5]: permeates human skin effectively | inhibition of cell viability [6]: 20-80% | number of colorectal adenomas (C57BL/6J-APC^min mice; APC^min mice treated for 4 weeks, FIG. 2 legend): reduction in the number of colorectal adenomas | number of adenomas in the small intestine (C57BL/6J-APC^min mice; four weeks, 2-PPA sodium salt i.p. 2×400 mg/kg/day, Celecoxib 1250 ppm in feed, FIG. 2A, 400 mg/kg/day): reduces adenoma formation; also recorded: clearly reduces the number of adenomas | abnormalities in the gastrointestinal tract (C57BL/6J-APC^min mice; mouse, in vivo): did not show any abnormalities in the gastrointestinal tract | TNF-α secretion (TNF-α; [8]): significant decrease | TNF-α secretion, dose-response (TNF-α): dose-dependent inhibition | Histone H3 and H4 acetylation in peripheral blood cells [7]: Histone H3 and H4 hyperacetylation | marker protein HDAC-2 in peripheral blood cells [7]: down-regulation of the marker protein HDAC-2 | mRNA transcript of IFN-γ [4]: significantly reduced | level of IL-6 mRNA [4]: significant decrease | level of TNF-α mRNA [4]: significant decrease | IL-2 mRNA transcripts (Peripheral blood cells; CD3/CD28 stimulated): decrease | TNF-α mRNA transcripts (Peripheral blood cells; CD3/CD28 stimulated): decrease | IL-2 in the culture supernatant (ELISA) (Peripheral blood cells; CD3/CD28 stimulated 24 h): modulates the expression | TNF-α in the culture supernatant (ELISA) (Peripheral blood cells; CD3/CD28 stimulated 24 h): modulates the expression | cytokine mRNA expression of IFN-γ (Peripheral blood cells; [9]): significantly reduced | cytokine mRNA expression of IL-4 (Peripheral blood cells; [9]): significantly reduced | IL-6 mRNA [3]: decreased IL-6 mRNA back to the level seen in the unstimulated sample | PMA/Ion mediated stimulation of IL-4 mRNA [3]: significantly reduced

Source: patent US7892833B2, “Using inhibitors of histone deacetylases for the suppression therapy of inherited disease predisposing conditions” (TopoTarget Germany AG, priority 2003, dated 2011)
